Results as given in patent publication US9233086B2 (THE REGENTS OF THE UNIVERSITY OF MICHIGAN, priority 2010, dated 2016).
Like-named read-outs stand apart in the source and are kept apart here. Where a SMILES comes first, the peptide text is derived from it. [ ]: non-standard residue; d: D form. The star is where a group is joined. NHPhenethyl = c1ccc(CCN*)cc1; Isobutyryl = CC(C)C(=O)*; Deg = CCC(N)(CC)C(=O)O; NHBn = c1ccc(CN*)cc1; NHPh = c1ccc(N*)cc1

Biological target: WDR5 (Homo sapiens (Human), UniProt P61964)
Experiment: FP based competitive binding assay to WDR5
Conditions: for Ki: read-out: Ki ± SD; for times less potent than Ac-3mer: ratio vs Ac-3mer; for fold decrease of binding affinity relative to Ac-10mer: ratio vs Ac-10mer
Protocol: Another aspect of the invention is development of a Fluorescent Polarization (FP) based competitive binding assay. […] Next, the millipolarization (mP) values were measured at different time points in order to determine equilibrium duration and stability.
Accordingly, the optimal protein concentrations for the competitive assay was investigated.
All the FP based experiments were performed in MICROFLUOR® 2 Black, “U” Bottom, 96-well Microtiter Plates (ThermoSci.) and FP was measured as mP units in a microplate reader (Tecan Ultra) with excitation at 485 nm and emission at 530 nm. The Kd of the tracers and the IC50 value of the inhibitors were calculated using GraphPad Prism 4 software.
The binding affinities of the synthetic peptides shown in the study were measured using this competitive binding assay. A pre-incubated complex solution of WDR5Δ23 and the tracer in 120 μl assay buffer were added to dilutions of the test compound in 5 μl DMSO, giving final concentrations of WDR5Δ23 and the tracer of 4 nM and 0.6 nM, respectively. […] The plates were incubated with shaking at room temperature. The mP values were measured after five hours of incubation and Ki values were calculated using the equation described previously(31).

[1] = read-out: Binding Affinity to WDR5 (IC50 ± SD), Table 5 peptidomimetics
[2] = 4 nM WDR5Δ23, 0.6 nM 10mer-Thr-FAM tracer, Ki calculated by equation of ref. 31
[3] = 4 nM WDR5Δ23, 0.6 nM 10mer-Thr-FAM tracer, read-out: IC50 ± SD

With `CCC(CC)(NC(=O)c1ccccc1)C(=O)N[C@H](CCCNC(=N)N)C(=O)NC1(C(=O)NC(c2ccccc2)c2ccccc2)CCCC1` [Compound 10J] the IC50 [1] was less than 10 µM.

Work on `CC[C@H](C)NC(=O)[C@H](CCCNC(=N)N)NC(=O)C(CC)(CC)NC(=O)C(C)C` [Compound 11A] yielded an IC50 [1] of less than 3 µM.

`CCC(CC)NC(=O)[C@H](CCCNC(=N)N)NC(=O)C(CC)(CC)NC(=O)C(C)C` [Compound 11B] gave an IC50 [1] of less than 1 µM.

For `CCC(CC)(NC(=O)C(C)C)C(=O)N[C@@H](CCCNC(=N)N)C(=O)Nc1ccccc1` [Compound 11C] (Isobutyryl-[Deg]-Arg-NHPh), the IC50 [1] was less than 10 µM.

`CCC(CC)(NC(=O)C(C)C)C(=O)N[C@@H](CCCNC(=N)N)C(=O)NCc1ccccc1` [Compound 11D] (Isobutyryl-[Deg]-Arg-NHBn) gave an IC50 [1] of less than 30 µM.

With `CCC(CC)(NC(=O)C(C)C)C(=O)N[C@@H](CCCNC(=N)N)C(=O)NC1CCCCC1` [Compound 11E] the IC50 [1] was less than 10 µM.

`CCC(CC)(NC(=O)C(C)C)C(=O)N[C@@H](CCCNC(=N)N)C(=O)N[C@H](C)c1ccccc1` [Compound 11F] showed an IC50 [1] of less than 30 µM.

In the case of `CCC(CC)(NC(=O)C(C)C)C(=O)N[C@@H](CCCNC(=N)N)C(=O)N[C@@H](C)c1ccccc1` [Compound 11G], the IC50 [1] is reported as less than 30 µM.

Work on `CCC(CC)(NC(=O)C(C)C)C(=O)N[C@@H](CCCNC(=N)N)C(=O)NC1CCCC1` [Compound 11I] yielded an IC50 [1] of less than 10 µM.

For `CCC(CC)(NC(=O)C(C)C)C(=O)N[C@@H](CCCNC(=N)N)C(=O)NC(C(C)C)C(C)C` [Compound 11J], the IC50 [1] was less than 10 µM.

Work on `CC[C@H](NC(=O)[C@H](CCCNC(=N)N)NC(=O)C(CC)(CC)NC(=O)C(C)C)c1ccccc1` [Compound 11K] yielded an IC50 [1] of less than 3 µM.

In the case of `CCC(CC)(NC(=O)C(C)C)C(=O)N[C@@H](CCCNC(=N)N)C(=O)NCCc1ccccc1` [Compound 11L] (Isobutyryl-[Deg]-Arg-NHPhenethyl), the IC50 [1] is reported as greater than 10 µM.

`CCC(CC)(NC(=O)C(C)C)C(=O)N[C@@H](CCCNC(=N)N)C(=O)NCCCc1ccccc1` [Compound 11M] was tested, and the IC50 [1] was greater than 1 µM.

With `CCC(CC)(NC(=O)C(C)C)C(=O)N[C@@H](CCCNC(=N)N)C(=O)NCCCCc1ccccc1` [Compound 11N] the IC50 [1] was less than 10 µM.

For `C[C@H](N)C(=O)N[C@@H](CCCNC(=N)N)C(=O)N[C@@H](C)C(N)=O` [Compound H2N-3mer, H2N-ARA-NH2] (H-Ala-Arg-Ala-NH2), the “binding to WDR5 (in words)” value was “does not bind to WDR5 up to the concentrations tested”.

Compound `CC(C)C[C@H](NC(=O)[C@H](Cc1c[nH]cn1)NC(=O)[C@@H](NC(=O)[C@H](CCC(=O)O)NC(=O)[C@H](C)NC(=O)[C@H](CCCNC(=N)N)NC(=O)[C@H](C)N)C(C)C)C(=O)N[C@@H](CCCNC(=N)N)C(=O)N[C@@H](CCCCN)C(=O)N[C@@H](CO)C(N)=O` [Compound H2N-10mer] has a Ki [2] of 7.3 ± 0.7 µM and an IC50 [3] of 34 ± 3 µM.

In the case of `C[C@H](N)C(=O)N[C@@H](CCCNC(=N)N)C(=O)N[C@H](C(N)=O)[C@@H](C)O` [Compound H3-3mer, H2N-ART-NH2, reference compound] (H-Ala-Arg-Thr-NH2), the Ki [2] is reported as 27.3 ± 2.5 µM and the IC50 [3] is reported as 127 ± 12 µM.

With `C[C@H](N)C(=O)N[C@@H](CCCNC(=N)N)C(=O)N[C@H](C(=O)N[C@@H](CCCCN)C(=O)N[C@@H](CCC(N)=O)C(=O)N[C@H](C(=O)N[C@@H](C)C(=O)N[C@@H](CCCNC(=N)N)C(=O)N[C@@H](CCCCN)C(=O)N[C@@H](CO)C(N)=O)[C@@H](C)O)[C@@H](C)O` [Compound H3-10mer, reference compound] the Ki (4 nM WDR5Δ23, 0.6 nM 10mer-Thr-FAM tracer, Ki calculated by equation of ref. 31, listed as wild-type H3 peptide) was 15 µM and the IC50 [3] was 70 ± 6 µM.

With `C[C@H](N)C(=O)N[C@@H](CCCNC(=N)N)C(=O)N[C@H](C(=O)N[C@@H](CCCC[N+](C)(C)C)C(=O)N[C@@H](CCC(N)=O)C(=O)N[C@H](C(=O)N[C@@H](C)C(=O)N[C@@H](CCCNC(=N)N)C(=O)N[C@@H](CCCCN)C(=O)N[C@@H](CO)C(N)=O)[C@@H](C)O)[C@@H](C)O` [L3-10mer-K4Me3, H2N-ARTK(Me3)QTARKS-NH2, reference compound] the Ki [2] was 15.6 ± 1.2 µM and the IC50 [3] was 73 ± 6 µM.

For `CC(=O)N[C@@H](C)C(=O)N[C@@H](CCCNC(=N)N)C(=O)N(C)[C@@H](C)C(N)=O` [Δ1, Ac-AR-(N—Me)A-NH2], the “binding to WDR5 (in words)” value was “complete loss of its binding to WDR5”.

`CC(=O)N[C@@H](C)C(=O)N[C@@H](CCCNC(=N)N)C(=O)N[C@@H](C)C(=O)N(C)C` [Δ2b, Ac-ARA-CONMe2] (Ac-Ala-Arg-Ala-NMe2) was tested, and the Ki [2] was 6.5 ± 1.2 µM, the IC50 [3] was 30 ± 5 µM and the “times less potent than Ac-3mer” value was 50.

With `COC(=O)[C@H](C)NC(=O)[C@H](CCCNC(=N)N)NC(=O)[C@H](C)NC(C)=O` [Δ2c, Ac-ARA-COOCH3] (Ac-Ala-Arg-Ala-OMe) the Ki [2] was 1.6 ± 0.2 µM, the IC50 [3] was 7.3 ± 0.8 µM and the “times less potent than Ac-3mer” value was 10.

Ac-ARAEV-NH2 [Ac-5mer, Ac-ARAEV-NH2] showed an IC50 (read-out: IC50 ± SD) of 0.75 ± 0.1 µM and a Ki of 0.16 ± 0.03 µM.

Ac-ARAEVH-NH2 [Ac-6mer, Ac-ARAEVH-NH2] gave an IC50 (read-out: IC50 ± SD) of 0.4 ± 0.1 µM and a Ki of 0.09 ± 0.02 µM.

For “Ac-ARAEVHL-NH2 [Ac-7mer, Ac-ARAEVHL-NH2]”, the “fold decrease of binding affinity relative to Ac-10mer” value was 10, the IC50 (read-out: IC50 ± SD) was 0.16 ± 0.03 µM and the Ki was 0.03 ± 0.01 µM.

With Ac-RAEVHLRKS-NH2 [Ac-9mer] the “fold decrease of binding affinity relative to Ac-10mer” value was 1500.

In the case of Ac-SARAEVHLRKS-NH2 [Ac-11mer], the Ki [2] is reported as 0.2 ± 0.03 µM and the IC50 [3] is reported as 1.04 ± 0.14 µM.
